Measurements as given in the supplement of paper PMC11061612.

How the values were obtained:
Test in all cases: combination Emax (second highest fraction inhibited in the dose matrix, 72 h); higher = more inhibition; extreme values may be limits of the assay
[1] = tested on: SW684 (Other Solid Carcinomas)
How it was run: (§1)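 Bliss excess equals the observed combination effect minus the expected value EA + EB − EA·EB, where EA and EB are the effects of each agent alone. Combination Emax is the second-highest inhibition within the matrix. Inhibition was scaled from CellTiter-Glo 2.0 luminescence, with 0 set by vehicle wells and 1 by blank wells, after 72 hours of two-drug dosing of cells plated in 1536-well plates.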

[2] = tested on: CML-T1 (Chronic Myelogenous Leukemia)
How it was run: as §1

[3] = tested on: NCI-H1755 (Lung Adenocarcinoma)
How it was run: as §1

[4] = tested on: CHL-1 (Melanoma)
How it was run: as §1

[5] = tested on: SJRH30 (Rhabdomyosarcoma)
How it was run: as §1

[6] = tested on: NCI-H1623 (Lung Adenocarcinoma)
How it was run: as §1

[7] = tested on: EB-3 (Burkitt's Lymphoma)
How it was run: as §1

[8] = tested on: SNU-175 (Colorectal Carcinoma)
How it was run: as §1

[9] = tested on: NCI-H1563 (Lung Adenocarcinoma)
How it was run: as §1

[10] = tested on: FLO-1 (Esophageal Adenocarcinoma)
How it was run: as §1

[11] = tested on: BALL-1 (B-Lymphoblastic Leukemia)
How it was run: as §1

[12] = tested on: KYM-1 (Rhabdomyosarcoma)
How it was run: as §1

[13] = tested on: Becker (Low Grade Glioma)
How it was run: as §1

[14] = tested on: Calu-6 (Non-Small Cell Lung Carcinoma)
How it was run: as §1

[15] = tested on: HSC-3 (Oral Cavity Carcinoma)
How it was run: as §1

[16] = tested on: COLO-684 (Endometrial Carcinoma)
How it was run: as §1

[17] = tested on: RT4 (Bladder Carcinoma)
How it was run: as §1

[18] = tested on: AN3-CA (Endometrial Carcinoma)
How it was run: as §1

[19] = tested on: ES-2 (Ovarian Carcinoma)
How it was run: as §1

[20] = tested on: RPMI-8866 (Chronic Myelogenous Leukemia)
How it was run: as §1

| Structure (SMILES) | combination Emax [1] | combination Emax [2] | combination Emax [3] | combination Emax [4] | combination Emax [5] | combination Emax [6] | combination Emax [7] | combination Emax [8] | combination Emax [9] | combination Emax [10] | combination Emax [11] | combination Emax [12] | combination Emax [13] | combination Emax [14] | combination Emax [15] | combination Emax [16] | combination Emax [17] | combination Emax [18] | combination Emax [19] | combination Emax [20] |
| --- | --- | --- | --- | --- | --- | --- | --- | --- | --- | --- | --- | --- | --- | --- | --- | --- | --- | --- | --- | --- |
| CN(C)CCCOc1ccc(-c2ccc3ncc4c(c3c2)n(C2CCOCC2)c(=O)n4C)cn1 [AZD0156] + C=CCn1c(=O)c2cnc(Nc3ccc(N4CCN(C)CC4)cc3)nc2n1-c1cccc(C(C)(C)O)n1 [AZD1775] (first compound max 1 µM, partner max 1 µM) | 0.107 | 0.917 | 0.749 | 0.623 | 0.809 | 0.311 | 0.736 | 0.405 | 0.367 | 0.805 | 0.977 | 0.355 | 0.177 | 0.722 | 0.243 | 0.688 | 0.314 | 0.351 | 0.616 | 0.965 |
| CN(C)CCCOc1ccc(-c2ccc3ncc4c(c3c2)n(C2CCOCC2)c(=O)n4C)cn1 [AZD0156] + CCN(CCO)CCCOc1ccc2c(Nc3cc(CC(=O)Nc4cccc(F)c4)[nH]n3)ncnc2c1 [AZD2811] (first compound max 1 µM, 7x7, partner max 1 µM) | 0.154 | 0.259 | 0.475 | 0.194 | 0.125 | 0.0312 | 0.425 | 0.604 | 0.311 | 0.267 | 0.634 | 0.0599 | 0.0601 | 0.328 | 0.308 | 0.201 | 0.349 | 0.27 | 0.167 | 0.61 |
| CN(C)CCCOc1ccc(-c2ccc3ncc4c(c3c2)n(C2CCOCC2)c(=O)n4C)cn1 [AZD0156] + C[C@@H]1COCCN1C2=NC(=NC(=C2)C3(CC3)[S@](=N)(=O)C)C4=C5C=CNC5=NC=C4 [AZD6738] (first compound max 1 µM, 7x7, partner max 10 µM) | 0.301 | 0.927 | 0.816 | 0.798 | 0.894 | 0.675 | 0.763 | 0.49 | 0.385 | 0.691 | 0.986 | 0.786 | 0.579 | 0.777 | 0.487 | 0.812 | 0.411 | 0.491 | 0.808 | 0.967 |
| CN(C)CCCOc1ccc(-c2ccc3ncc4c(c3c2)n(C2CCOCC2)c(=O)n4C)cn1 [AZD0156] + O=C(c1cc(Cc2n[nH]c(=O)c3ccccc23)ccc1F)N1CCN(C(=O)C2CC2)CC1 [Olaparib] (first compound max 3 µM, partner max 3 µM) | 0.141 | 0.688 | 0.414 | 0.186 | 0.48 | 0.333 | 0.568 | 0.553 | 0.246 | 0.289 | 0.79 | 0.583 | 0.247 | 0.36 | 0.467 | 0.307 | 0.174 | 0.352 | 0.448 | 0.285 |
| C=CCn1c(=O)c2cnc(Nc3ccc(N4CCN(C)CC4)cc3)nc2n1-c1cccc(C(C)(C)O)n1 [AZD1775] + C1CN(CCC1(C(=O)N[C@@H](CCO)C2=CC=C(C=C2)Cl)N)C3=NC=NC4=C3C=CN4 [Capivasertib] (first compound max 3 µM, partner max 3 µM) | 0.467 | 0.932 | 0.8 | 0.826 | 0.955 | 0.597 | 0.829 | 0.917 | 0.459 | 0.921 | 1 | 0.767 | 0.602 | 0.8 | 0.773 | 0.841 | 0.712 | 0.905 | 0.817 | 0.964 |
| C=CCn1c(=O)c2cnc(Nc3ccc(N4CCN(C)CC4)cc3)nc2n1-c1cccc(C(C)(C)O)n1 [AZD1775] + C[C@@H]1COCCN1C2=NC(=NC(=C2)C3(CC3)[S@](=N)(=O)C)C4=C5C=CNC5=NC=C4 [AZD6738] (first compound max 1 µM, partner max 10 µM) | 0.474 | 0.971 | 0.899 | 0.84 | 0.962 | 0.74 | 0.855 | 0.702 | 0.446 | 0.924 | 0.988 | 0.837 | 0.678 | 0.808 | 0.63 | 0.851 | 0.623 | 0.714 | 0.841 | 0.989 |
| C=CCn1c(=O)c2cnc(Nc3ccc(N4CCN(C)CC4)cc3)nc2n1-c1cccc(C(C)(C)O)n1 [AZD1775] + O=C(c1cc(Cc2n[nH]c(=O)c3ccccc23)ccc1F)N1CCN(C(=O)C2CC2)CC1 [Olaparib] (first compound max 1 µM, partner max 10 µM) | 0.249 | 0.962 | 0.832 | 0.528 | 0.777 | 0.605 | 0.73 | 0.447 | 0.215 | 0.878 | 0.985 | 0.563 | 0.216 | 0.708 | 0.268 | 0.625 | 0.283 | 0.339 | 0.622 | 0.977 |
| CCN(CCO)CCCOc1ccc2c(Nc3cc(CC(=O)Nc4cccc(F)c4)[nH]n3)ncnc2c1 [AZD2811] + C=CCn1c(=O)c2cnc(Nc3ccc(N4CCN(C)CC4)cc3)nc2n1-c1cccc(C(C)(C)O)n1 [AZD1775] (first compound max 1 µM, partner max 1 µM) | 0.165 | 0.915 | 0.76 | 0.658 | 0.827 | 0.297 | 0.62 | 0.637 | 0.245 | 0.769 | 0.986 | 0.401 | 0.167 | 0.727 | 0.492 | 0.649 | 0.408 | 0.308 | 0.627 | 1 |
| COc1nnc2ccc(N3CCC(c4ccc(OCCN5CCN(C)C(=O)[C@H]5C)cc4)CC3)nn12 [AZD5153] + CN(CC[C@H](CSC1=CC=CC=C1)NC2=C(C=C(C=C2)S(=O)(=O)NC(=O)C3=CC=C(C=C3)N4CCC(CC4)[C@H](C5=CC=CC=C5C6=CC=C(C=C6)Cl)O)S(=O)(=O)C(F)(F)F)CCO [AZD4320] (first compound max 1 µM, 7x7, partner max 1 µM) | – | – | – | – | 0.706 | 0.46 | – | 0.759 | 0.536 | – | 1 | – | – | 0.574 | 0.712 | – | 0.545 | 0.255 | 0.745 | 0.87 |
| Cc1c2c(nn1C)CSCc1cc(n(C)n1)CSc1cc(c3ccccc3c1)OCCCc1c(C(=O)O)n(C)c3c-2c(Cl)ccc13 [AZD5991] + CN(C)CCCOc1ccc(-c2ccc3ncc4c(c3c2)n(C2CCOCC2)c(=O)n4C)cn1 [AZD0156] (first compound max 1 µM, 7x7, partner max 1 µM) | 0.236 | 0.223 | 0.361 | – | 0.544 | 0.891 | 0.371 | 0.458 | 0.668 | 0.36 | 0.606 | 0.268 | 0.141 | 0.282 | 0.873 | 0.332 | 0.289 | 0.404 | 0.313 | 0.668 |
| CC(=O)c1c(C)c2cnc(Nc3ccc(N4CCNCC4)cn3)nc2n(C2CCCC2)c1=O [Palbociclib] + CN(CC[C@H](CSC1=CC=CC=C1)NC2=C(C=C(C=C2)S(=O)(=O)NC(=O)C3=CC=C(C=C3)N4CCC(CC4)[C@H](C5=CC=CC=C5C6=CC=C(C=C6)Cl)O)S(=O)(=O)C(F)(F)F)CCO [AZD4320] (first compound max 10 µM, 7x7, partner max 1 µM) | – | – | – | – | 0.37 | 0.387 | – | 0.877 | 0.348 | – | 1 | – | – | 0.623 | 0.613 | – | 0.383 | 0.709 | 0.621 | 0.927 |
| CCc1c2c(nc3ccc(O)cc13)-c1cc3c(c(=O)n1C2)COC(=O)[C@]3(O)CC [SN-38] + O=C(c1cc(Cc2n[nH]c(=O)c3ccccc23)ccc1F)N1CCN(C(=O)C2CC2)CC1 [Olaparib] (first compound max 0.3 µM, 7x7, partner max 10 µM) | 0.556 | 1 | 0.616 | 0.508 | 0.444 | – | 0.682 | 0.471 | – | 0.479 | 1 | 0.875 | 0.818 | 0.776 | 0.847 | 0.514 | 0.832 | – | – | 0.994 |
| C[C@@H](c1ccc2nccn2c1)n1nnc2ncc(-c3cnn(C)c3)nc21 [Savolitinib] + CN(CC[C@H](CSC1=CC=CC=C1)NC2=C(C=C(C=C2)S(=O)(=O)NC(=O)C3=CC=C(C=C3)N4CCC(CC4)[C@H](C5=CC=CC=C5C6=CC=C(C=C6)Cl)O)S(=O)(=O)C(F)(F)F)CCO [AZD4320] (first compound max 1 µM, 7x7, partner max 1 µM) | – | – | – | – | 0.265 | 0.255 | – | 0.349 | 0.213 | – | 1 | – | – | 0.414 | 0.185 | – | 0.376 | 0.217 | 0.236 | 0.366 |
